Assays:
[1] = tested on: Lactobacillus delbrueckii subsp. bulgaricus; assay: Test Example 8: organic acid concentration in fermentate at completion of fermentation, inosinic acid medium; format: cell-based; settings: 1 mM additive, 1 mM inosinic acid medium
Protocol: (§1) The strains shown in Tables 13 and 14 were precultured in the preculture medium and then used. The activation medium used was a 10 mass % reduced skim milk medium containing 0.1 mass % yeast extract, sterilized at 121° C. for 7 minutes. Here, the 10 mass % reduced skim milk medium is a 10 mass % aqueous solution of skim milk powder (fat 1 mass %, protein 34 mass %, lactose 54 mass %, ash 8 mass %, non-fat milk solid 96 mass %) (manufactured by Meiji Co., Ltd.) (in the above medium, lactose 5.4 mass %, non-fat milk solid 9.6 mass %). Frozen bacteria were added to the above-mentioned activation medium in an amount of 0.1 mass % (with respect to the amount of the activation medium) and statically cultured at 37° C. for 16 hours to obtain an activation solution. An aliquot of 0.1 mass % of the activation solution obtained (with respect to the amount of activation medium) was added to another activation medium, and the mixture was allowed to stand at 37° C. for 16 hours to obtain a lactic acid bacterial starter. Then, fermentation was carried out using a fermentation medium as raw material milk. The fermentation medium was prepared by adding inosinic acid to the 10 mass % reduced skim milk medium so as to give a final concentration of 1 mM, and then sterilizing the mixture at 95° C., and was used. […] The pH of the fermentation medium was about 6.4. The lactic acid bacterial starter of each strain obtained above was inoculated into the fermentation medium in an amount of 2.5 mass % (with respect to the amount of the fermentation medium), statically cultured at 40° C., and fermented. The fermentation time was the time required for the medium to reach pH 4.6. The pH value was measured using a commercially available pH meter.

[2] = tested on: L. delbrueckii subsp. bulgaricus 2038; assay: Test Example 2-1: organic acid concentrations after fermentation (HPLC); format: cell-based, Lactobacillus delbrueckii subsp. bulgaricus; settings: strain 2038
Protocol: The fermentation was carried out using a fermentation medium (raw material milk). The fermentation medium was prepared by adding formic acid to the 10% reduced skim milk medium so as to give a final concentration of 1 mM, and then sterilizing the mixture at 95° C., and was used. […] In the above fermentation medium, a lactic acid bacterial starter of […] was inoculated at 0.5% (with respect to the amount of fermentation medium), statically cultured at 40° C., and fermented. The fermentation time was the time required for the medium to reach pH 4.6. The measurement of the organic acid concentration after the completion of fermentation was carried out as follows. An aliquot of 0.4 g of the fermentate obtained (fermented milk) was diluted by 2-fold with pure water, 20 μL of Carrez's Reagent I (53.5% (w/v) zinc sulfate) was added thereto and the mixture was vortexed, and 20 μl of Carrez's Reagent II (17.2% (w/v) potassium ferrocyanide) was added thereto and the mixture was vortexed. The resulting mixture was centrifuged at 4° C., 20620 g for 10 minutes, and the supernatant was filtered through a 0.22 μm filter and the filtrate was analyzed under the conditions shown in Table 2.

[3] = tested on: Lactobacillus delbrueckii subsp. bulgaricus OLL1073R-1; assay: Test Example 9: EPS production during culture; format: cell-based; settings: 4 mM added; strain OLL1073R-1; 37° C.; compared with the control
Protocol: Frozen bacteria of Lactobacillus delbrueckii subsp. bulgaricus OLL1073R-1 were prepared.
Raw material components other than anhydrous crystalline glucose were dissolved in Elix water, the mixture was adjusted to pH 6.65 using sodium hydroxide, and then diluted in measuring flask to 70 wt % of the charge amount of the medium. Anhydrous crystalline glucose was dissolved in Elix water, and diluted in measuring flask to 30 wt % of the charge amount of the medium.
In addition, the raw material components other than sugar solution and sugar were sterilized separately by heating at 110° C. for 1 minute in an autoclave and then aseptically mixed and used.
An aliquot of 1.5 kg of the above medium was adjusted to pH 5.4 using 6 N potassium carbonate, to the medium, 0.30 mass % of frozen bacteria (with respect to the amount of medium) was inoculated, and the bacteria were cultured at 37° C. while top ventilating with nitrogen at a flow rate of 0.5 L/min and stirring under the condition of 150 rpm.
The EPS concentration was measured under the following conditions. […]
The supernatant was removed by centrifuging (4° C., 13400 g, 20 min), and 20 ml of cooled 66% ethanol was added thereto to suspend the precipitate. […] The EPS concentration of the analysis sample was measured by the phenol-sulfuric acid method.

[4] = tested on: L. salivarius; assay: Test Example 5: organic acid concentrations after fermentation; format: cell-based, Lactobacillus salivarius; settings: 1 mM added
Protocol: (§2) The measurement of the organic acid concentration after the completion of fermentation was carried out as follows. An aliquot of 0.4 g of the fermentate obtained (fermented milk) was diluted by 2-fold with pure water, 20 μL of Carrez's Reagent I (53.5% (w/v) zinc sulfate) was added thereto and the mixture was vortexed, and 20 μl of Carrez's Reagent II (17.2% (w/v) potassium ferrocyanide) was added thereto and the mixture was vortexed. The resulting mixture was centrifuged at 4° C., 20620 g for 10 minutes, and the supernatant was filtered through a 0.22 μm filter and the filtrate was analyzed under the conditions shown in Table 2. [table] The measurement of the organic acid concentration after the completion of fermentation by L. rhamnosus and L. salivarius in Test Example 3 or 4 was carried out in the same manner as in Test Example 2-1. The addition of malic acid or fumaric acid promoted production of succinic acid by L. rhamnosus and L. salivarius.

[5] = tested on: Lactobacillus delbrueckii subsp. bulgaricus; assay: Test Example 2-2: organic acid concentration in fermentate at completion of fermentation, formic acid medium; format: cell-based; settings: 1 mM additive, 1 mM formic acid medium
Protocol: as §1, with “6” for “13”, “7” for “14”, “formic” for “inosinic”

[6] = tested on: L. rhamnosus; assay: Test Example 5: organic acid concentrations after fermentation; format: cell-based, Lactobacillus rhamnosus; settings: 1 mM added
Protocol: as §2

[7] = tested on: L. delbrueckii subsp. bulgaricus 2038; assay: Test Example 2-1: fermentation time versus concentration of malic acid or fumaric acid; format: cell-based, Lactobacillus delbrueckii subsp. bulgaricus; settings: L. bulgaricus 2038; from Tables 3 and 4
Protocol: The fermentation was carried out using a fermentation medium (raw material milk). The fermentation medium was prepared by adding formic acid to the 10% reduced skim milk medium so as to give a final concentration of 1 mM, and then sterilizing the mixture at 95° C., and was used. […] In the above fermentation medium, a lactic acid bacterial starter of […] was inoculated at 0.5% (with respect to the amount of fermentation medium), statically cultured at 40° C., and fermented. The fermentation time was the time required for the medium to reach pH 4.6.

[8] = No addition of L. delbrueckii subsp. bulgaricus

| Structure (SMILES) | Concentration of malic acid [1, 8] [mM] | Concentration of succinic acid [1, 8] [mM] | Concentration of succinic acid in fermentate at completion of fermentation (pH 4.6) ([1]; strain 0LL1171) [mM] | Concentration of succinic acid in fermentate at completion of fermentation (pH 4.6) ([1]; strain 2038) [mM] | Concentration of succinic acid in fermentate at completion of fermentation (pH 4.6) ([1]; strain OLL1073R-1) [mM] | Concentration of succinic acid in fermentate at completion of fermentation (pH 4.6) ([1]; strain OLL1247) [mM] | Concentration of succinic acid in fermentate at completion of fermentation (pH 4.6) ([1]; strain OLL1255) [mM] | Concentration of succinic acid in fermentate at completion of fermentation (pH 4.6) ([1]; strain OLL205013) [mM] | Concentration of succinic acid in fermentate at completion of fermentation (pH 4.6) ([1]; strain P1902901) [mM] | Concentration of fumaric acid ([2]; 1 mM added) [mM] | Concentration of malic acid ([2]; 1 mM added) [mM] | EPS concentration with the culturing time (FIG. 1) [3] | Concentration of fumaric acid [4] [mM] | Concentration of malic acid [4] [mM] | Concentration of succinic acid [4] [mM] | Concentration of malic acid [5, 8] [mM] | Concentration of succinic acid [5, 8] [mM] | Concentration of succinic acid in fermentate at completion of fermentation (pH 4.6) ([5]; strain 2038) [mM] | Concentration of succinic acid in fermentate at completion of fermentation (pH 4.6) ([5]; strain OLL1073R-1) [mM] | Concentration of succinic acid in fermentate at completion of fermentation (pH 4.6) ([5]; strain OLL1171) [mM] | further results |
| --- | --- | --- | --- | --- | --- | --- | --- | --- | --- | --- | --- | --- | --- | --- | --- | --- | --- | --- | --- | --- | --- |
| O=C(O)/C=C/C(=O)O [Fumaric acid, fumaric acid] | 0.13 | 0.06 | 1.43 | 1.43 | 1.52 | 1.57 | 1.49 | 1.60 | 1.40 | 0.00 | 0.00 | higher concentration compared with the control | 0.62 | 0.51 | 0.29 | 0.11 | 0.07 | 1.67 | 1.73 | 1.58 | Concentration of fumaric acid [1, 8]: 1.12 mM; Concentration of fumaric acid [5, 8]: 1.11 mM; Concentration of succinic acid in fermentate at completion of fermentation (pH 4.6) ([5]; strain OLL1247): 1.72 mM; Concentration of fumaric acid in fermentate at completion of fermentation (pH 4.6) ([5]; strain OLL1255): 0.15 mM; Concentration of succinic acid in fermentate at completion of fermentation (pH 4.6) ([5]; strain OLL1255): 1.49 mM; Concentration of succinic acid in fermentate at completion of fermentation (pH 4.6) ([5]; strain OLL205013): 1.54 mM; Concentration of succinic acid in fermentate at completion of fermentation (pH 4.6) ([5]; strain P1902901): 1.59 mM; Concentration of succinic acid [6]: 1.39 mM; Concentrations at which a fermentation promoting effect was confirmed [7]: 0.01 to 2.5 mM |
| O=C(O)CC(O)C(=O)O (centres unmarked) [Malic acid, malic acid] | 1.06 | 0.06 | 1.40 | 1.40 | 1.50 | 1.53 | 1.46 | 1.53 | 1.38 | 0.00 | 0.00 | higher concentration compared with the control | 0.35 | 0.75 | 0.28 | 0.99 | 0.08 | 1.71 | 1.67 | 1.57 | Concentration of succinic acid ([2]; 1 mM added): 1.94 mM; Concentration of fumaric acid ([2]; 10 mM added): 0.03 mM; Concentration of malic acid ([2]; 10 mM added): 4.27 mM; Concentration of succinic acid ([2]; 10 mM added): 5.78 mM; Concentration of fumaric acid ([2]; 50 mM added): 0.21 mM; Concentration of malic acid ([2]; 50 mM added): 42.05 mM; Concentration of succinic acid ([2]; 50 mM added): 9.84 mM; Concentration of succinic acid in fermentate at completion of fermentation (pH 4.6) ([5]; strain OLL1247): 1.67 mM; Concentration of malic acid in fermentate at completion of fermentation (pH 4.6) ([5]; strain OLL1255): 0.35 mM; Concentration of succinic acid in fermentate at completion of fermentation (pH 4.6) ([5]; strain OLL1255): 1.03 mM; Concentration of succinic acid in fermentate at completion of fermentation (pH 4.6) ([5]; strain OLL205013): 1.55 mM; Concentration of succinic acid in fermentate at completion of fermentation (pH 4.6) ([5]; strain P1902901): 1.59 mM; Concentrations at which a fermentation promoting effect was confirmed [7]: 0.01 to 50 mM |
